Assay results from patent US20240101548A1, “HYDROXAMATE COMPOUND, PREPARATION METHOD THEREFOR AND APPLICATION THEREOF” (SHENZHEN CHIPSCREEN BIOSCIENCES CO., LTD., priority 2020, published 2024).
Read-outs that look alike come from different tables or passages of the source.

Key:
Type in all cases: cell-based, human
[1] = tested on: IL-10-induced JAK1/TYK2 signal pathway; assay: IL-10-induced JAK1/TYK2 signal pathway STAT3-Luc reporter gene assay in U2OS cells; settings: U2OS cells, STAT3-Luc reporter, IL-10 10 ng/mL, read-out: Half inhibition dose (IC50) on IL-10-induced JAK1/TYK2 signal pathway
Procedure, shortened: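 U2OS cells co-transfected with IL-10R1-EGFP and STAT3-luciferase reporter plasmids; after 24 h, compound added (0–300 nM) for 6 h before 10 ng/mL human IL-10, then 24 h culture. Luciferase signal normalised to GFP for transfection efficiency; IC50 from inhibition rates.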

[2] = tested on: IL-2-induced JAK1/JAK3 signal pathway; assay: IL-2-induced proliferation of KHYG-1 cells (JAK1/JAK3 signal); settings: Homo sapiens, read-out: Inhibition activity IC50 on IL-2-induced JAK1/JAK3 signal pathway
Procedure, shortened: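 KHYG-1 NK lymphoma cells were cultured with IL-2 and test compound at various doses for 72 h at 37 °C and 5% CO2, and proliferation was read with alamarBlue fluorescence. Inhibition was normalized to wells without compound or cytokine (0%) and IL-2 wells without compound (100%), and C50 was derived from the dose-inhibition data.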

[3] = tested on: EPO-induced JAK2 signal pathway; assay: EPO-induced proliferation of UT-7 cells (JAK2 signal); settings: Homo sapiens, UT7; UT-7 cell proliferation, EPO 10 ng/mL, 72 hours; read-out: Inhibition activity IC50 on EPO-induced JAK2 signal pathway
Procedure, shortened: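 UT-7 cells (15000/well) stimulated with 10 ng/mL human recombinant EPO plus compound at final 0, 100, 1000 or 10000 nM, 72 h at 37° C., 5% CO2. Proliferation by alamarBlue fluorescence (Ex530/Em590); inhibition normalised to no-cytokine/no-compound (0) and EPO-only (100) wells, […] derived from dose-inhibition.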

[4] = KHYG-1 cell proliferation, IL-2 10 ng/mL, 72 hours

| Compound | IC50 ([1]; Homo sapiens, U2OS) [µM] | IC50 [2, 4] [µM] | IC50 [3] [µM] | IC50 ([1]; Homo sapiens) [µM] | IC50 [1] [µM] | IC50 ([2]; KHYG-1, 72 h) [µM] |
| --- | --- | --- | --- | --- | --- | --- |
| CONC(=O)c1cnc(Nc2cccc(F)n2)cc1Nc1ccc(Cl)cc1N(C)S(C)(=O)=O [Example 47, 4-((4-chloro-2-(N-methylmethanesulfonamido)phenyl)amino)-6-((6-fluoropyridin-2-yl)amino)-N-methoxy nicotinamide] | 0.00134 | > 10 | > 10 | – | – | – |
| CCONC(=O)c1cnc(Nc2ccc(F)cn2)cc1Nc1ccc(C2CC2)cc1N(C)S(C)(=O)=O [Example 95, 4-((4-cyclopropyl-2-(N-methylmethanesulfonamido)phenyl)amino)-N-ethoxy-6-((5-fluoropyridin-2-yl)amino)nicotinamide] | 0.00228 | > 10 | > 10 | – | – | – |
| C#Cc1ccc(Nc2cc(Nc3ccccn3)ncc2C(=O)NOCC)c(N(C)S(C)(=O)=O)c1 [Example 162, N-ethoxy-4-((4-ethynyl-2-(N-methylmethanesulfonamido)phenyl)amino)-6-(pyridin-2-ylamino)nicotinamide] | 0.000438 | > 10 | > 10 | – | – | – |
| CCONC(=O)c1cnc(Nc2cc(C)nc(C)n2)cc1Nc1ccc(C)c(F)c1N(C)S(C)(=O)=O [Example 197] | 0.000731 | > 10 | > 10 | – | – | – |
| C#Cc1ccc(Nc2cc(Nc3cccc(F)n3)ncc2C(=O)NOCC)c(N(C)S(C)(=O)=O)c1 [Example 143, N-ethoxy-4-((4-ethynyl-2-(N-methylmethanesulfonamido)phenyl)amino)-6-(6-fluoropyridin-2-ylamino)nicotinamide] | 0.000496 | > 10 | > 10 | – | – | – |
| CCONC(=O)c1cnc(Nc2cc(C)nc(C)n2)cc1Nc1ccc(C)cc1N(C)S(C)(=O)=O [Example 133, 6-((2,6-dimethylpyrimidin-4-yl)amino)-N-ethoxy-4-((4-methyl-2-(N-methylmethanesulfonamido)phenyl)amino)nicotinamide] | 0.000618 | > 10 | > 10 | – | – | – |
| C#Cc1cc(N(C)S(C)(=O)=O)c(Nc2cc(Nc3cc(C)nc(C)n3)ncc2C(=O)NOCC)cc1F [Example 182] | 0.00159 | > 10 | > 10 | – | – | – |
| CCONC(=O)c1cnc(Nc2ncc(F)cc2F)cc1Nc1cc(F)cc(-c2ncn(C3CC3)n2)c1OC [Example 244, 4-((3-(1-cyclopropyl-1H-1,2,4-triazol-3-yl)-5-fluoro-2-methoxyphenyl)amino)-6-((3,5-difluoropyridin-2-yl)amino)-N-ethoxy nicotinamide] | 0.00258 | > 10 | > 10 | – | – | – |
| C#Cc1ccc(Nc2cc(Nc3ccc(OC)cn3)ncc2C(=O)NOCC)c(N(C)S(C)(=O)=O)c1 [Example 141, N-ethoxy-4-((4-ethynyl-2-(N-methylmethanesulfonamido)phenyl)amino)-6-(5-methoxypyridin-2-ylamino)nicotinamide] | 0.000489 | > 10 | > 10 | – | – | – |
| CONC(=O)c1cnc(Nc2cc(C)nc(C)n2)cc1Nc1ccc(C2CC2)cc1N(C)S(C)(=O)=O [Example 112] | 0.000711 | > 10 | > 10 | – | – | – |
| CCONC(=O)c1cnc(Nc2ccncn2)cc1Nc1cc(F)c(C(C)C)cc1N(C)S(C)(=O)=O [Example 230, N-ethoxy-4-((5-fluoro-4-isopropyl-2-(N-methylmethanesulfonamido)phenyl)amino)-6-(pyrimidin-4-ylamino)nicotinamide] | 0.00085 | > 10 | > 10 | – | – | – |
| CONC(=O)c1cnc(Nc2ccc(C#N)cn2)cc1Nc1ccccc1N(C)S(C)(=O)=O [Example 43, 6-((5-cyanopyridin-2-yl)amino)-N-methoxy-4-((2-(N-methylmethanesulfonamido)phenyl)amino)nicotinamide] | 0.00118 | > 10 | > 10 | – | – | – |
| CCONC(=O)c1cnc(NC(=O)C2CC2)cc1Nc1ccc(C2CC2)cc1N(C)S(C)(=O)=O [Example 139, 6-(cyclopropylcarboxamido)-4-((4-cyclopropyl-2-(N-methylmethanesulfonamido)phenyl)amino)-N-ethoxy nicotinamide] | 0.0014 | > 10 | > 10 | – | – | – |
| CONC(=O)c1cnc(Nc2cccc(F)n2)cc1Nc1ccc(OCC2CC2)cc1N(C)S(C)(=O)=O [Example 62, 4-((4-(cyclopropylmethoxy)-2-(N-methylmethanesulfonamido)phenyl)amino)-6-((6-fluoropyridin-2-yl)amino)-N-methoxy nicotinamide] | 0.00129 | > 10 | > 10 | – | – | – |
| CCONC(=O)c1cnc(Nc2ccccn2)cc1Nc1ccc(C2CC2)cc1N(C)S(C)(=O)=O [Example 138, 4-((4-cyclopropyl-2-(N-methylmethanesulfonamido)phenyl)amino)-N-ethoxy-6-(pyridin-2-ylamino)nicotinamide] | 0.000601 | > 10 | > 10 | – | – | – |
| CONC(=O)c1cnc(Nc2cc(C)nc(C)n2)cc1Nc1ccccc1N(C)S(C)(=O)=O [Example 45] | 0.000855 | > 10 | > 10 | – | – | – |
| CCONC(=O)c1cnc(Nc2cc(C)nc(C)n2)cc1Nc1ccc(CC)cc1N(C)S(C)(=O)=O [Example 180] | – | > 10 | > 10 | 0.00113 | – | – |
| CONC(=O)c1cnc(NC(=O)C2CC2)cc1Nc1ccc(Cl)cc1N(C)S(C)(=O)=O [Example 79, 4-((4-chloro-2-(N-methylmethanesulfonamido)phenyl)amino)-6-(cyclopropylcarboxamido)-N-methoxy nicotinamide] | 0.000889 | > 10 | > 10 | – | – | – |
| CCONC(=O)c1cnc(Nc2cccc(C)n2)cc1Nc1ccc(C2CC2)cc1N(C)S(C)(=O)=O [Example 146, 4-((4-cyclopropyl-2-(N-methylmethanesulfonamido)phenyl)amino)-N-ethoxy-6-((6-methylpyridin-2-yl)amino)nicotinamide] | – | > 10 | > 10 | – | 0.00252 | – |
| CCONC(=O)c1cnc(NC(=O)C2CC2)cc1Nc1cc(F)cc(-c2ncc(C)cn2)c1OC [Example 226, 6-(cyclopropylcarboxamido)-N-ethoxy-4-((5-fluoro-2-(methoxy)-3-(5-methylpyrimidin-2-yl)phenyl)amino)nicotinamide] | 0.000538 | > 10 | > 10 | – | – | – |
| CCONC(=O)c1cnc(Nc2cc(C)nc(C)n2)cc1Nc1ccccc1N(C)S(=O)(=O)C1CC1 [Example 173, 6-((2,6-dimethylpyrimidin-4-yl)amino)-N-ethoxy-4-((2-(N-methylcyclopropylsulfonamido)phenyl)amino)nicotinamide] | – | – | > 10 | 0.000424 | – | > 10 |
| CCONC(=O)c1cnc(Nc2cccc(C(F)(F)F)n2)cc1Nc1ccc(C2CC2)cc1N(C)S(C)(=O)=O [Example 220, 4-((4-cyclopropyl-2-(N-methylmethanesulfonamido)phenyl)amino)-N-ethoxy-6-((6-(trifluoromethyl)pyridin-2-yl)amino)nicotinamide] | 0.00132 | > 10 | > 10 | – | – | – |
| CONC(=O)c1cnc(Nc2ccc(F)cn2)cc1Nc1ccc(C)nc1N(C)S(C)(=O)=O [Example 60] | 0.00115 | > 10 | > 10 | – | – | – |
| CCONC(=O)c1cnc(Nc2cc(C)nc(C)n2)cc1Nc1ccc(C#N)cc1N(C)S(C)(=O)=O [Example 177] | 0.0016 | > 10 | > 10 | – | – | – |
| CONC(=O)c1cnc(Nc2cc(C)c(F)cn2)cc1Nc1ccccc1N(C)S(C)(=O)=O [Example 44, 6-((5-fluoro-4-methylpyridin-2-yl)amino)-N-methoxy-4-((2-(N-methylmethanesulfonamido)phenyl)amino)nicotinamide] | 0.00104 | > 10 | > 10 | – | – | – |
| CONC(=O)c1cnc(Nc2cccc(F)n2)cc1Nc1cccc(-n2cccn2)c1OC [Example 42, 6-((6-fluoropyridin-2-yl)amino)-N-methoxy-4-((2-methoxy-3-(1H-pyrazol-1-yl)phenyl)amino)nicotinamide] | 0.00151 | > 10 | > 10 | – | – | – |
| CCONC(=O)c1cnc(Nc2cccc(F)n2)cc1Nc1ccc(Cl)cc1N(C)S(C)(=O)=O [Example 129, 4-((4-chloro-2-(N-methylmethanesulfonamido)phenyl)amino)-N-ethoxy-6-((6-fluoropyridin-2-yl)amino)nicotinamide] | 0.00108 | > 10 | > 10 | – | – | – |
| CCONC(=O)c1cnc(Nc2ccc(F)cn2)cc1Nc1ccc(Cl)cc1N(C)S(C)(=O)=O [Example 128, 4-((4-chloro-2-(N-methylmethanesulfonamido)phenyl)amino)-N-ethoxy-6-((5-fluoropyridin-2-yl)amino)nicotinamide] | 0.000697 | > 10 | > 10 | – | – | – |
